# Experimental data taken from US12448394B2, “Heterocyclic pyrazole derivatives as type III receptor tyrosine kinase inhibitors” (DEVELOPMENT CENTER FOR BIOTECHNOLOGY, priority 2019, dated 2025).
# Molecular target: T1, FLT3 kinase (Homo sapiens, UniProt P36888)
# T1 construct: purchased SignalChem
# T1 sequence (P36888 27-993): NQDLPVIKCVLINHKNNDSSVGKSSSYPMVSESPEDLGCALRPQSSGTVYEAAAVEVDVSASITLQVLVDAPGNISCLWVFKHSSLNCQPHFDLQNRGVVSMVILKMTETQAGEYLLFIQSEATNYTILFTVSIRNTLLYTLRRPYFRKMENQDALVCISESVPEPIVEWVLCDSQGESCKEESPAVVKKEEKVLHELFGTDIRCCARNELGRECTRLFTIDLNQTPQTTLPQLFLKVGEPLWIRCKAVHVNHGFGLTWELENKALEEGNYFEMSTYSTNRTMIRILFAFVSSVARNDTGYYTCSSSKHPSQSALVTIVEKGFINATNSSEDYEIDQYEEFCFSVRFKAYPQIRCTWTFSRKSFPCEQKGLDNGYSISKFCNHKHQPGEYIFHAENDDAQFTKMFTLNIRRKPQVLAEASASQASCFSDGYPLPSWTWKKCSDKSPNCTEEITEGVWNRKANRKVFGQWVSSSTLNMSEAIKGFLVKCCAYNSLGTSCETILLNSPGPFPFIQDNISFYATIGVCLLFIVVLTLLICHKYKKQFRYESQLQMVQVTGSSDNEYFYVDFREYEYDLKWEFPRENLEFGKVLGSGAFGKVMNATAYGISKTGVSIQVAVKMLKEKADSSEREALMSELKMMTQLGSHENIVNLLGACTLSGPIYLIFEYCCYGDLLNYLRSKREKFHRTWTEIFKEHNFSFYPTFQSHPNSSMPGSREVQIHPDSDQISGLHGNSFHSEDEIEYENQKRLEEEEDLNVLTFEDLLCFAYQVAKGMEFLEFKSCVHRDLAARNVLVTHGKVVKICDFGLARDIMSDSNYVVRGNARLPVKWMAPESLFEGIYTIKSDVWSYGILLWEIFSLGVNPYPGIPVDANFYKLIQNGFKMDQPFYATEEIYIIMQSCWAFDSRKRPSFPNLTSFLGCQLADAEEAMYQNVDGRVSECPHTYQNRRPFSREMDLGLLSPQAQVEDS
# Assay: FLT3 kinase assay (AlphaScreen)
# Assay type: biochemical
# Settings: read-out: Ranking of IC50 values, FLT3
# In short: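 AlphaScreen detection of biotin-poly(Glu4:Tyr1) phosphorylation by 1.5 ng recombinant FLT3 (10 μM ATP, pH 7.0 MOPS, 10 mM MgCl2; 30 °C, 30 min, EDTA quench). IC50 values derived from serially diluted compound tested in duplicate.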
row,IC50 [nM],Compound
1,< 1,"Cn1ncc2ccc(-c3n[nH]c4c3Cc3sc(-c5ccc(CN6CCOCC6)cn5)cc3-4)cc21 [Compound 95, 4-((6-(3-(1-methyl-1H-indazol-6-yl)-1,4-dihydro-thieno[2′,3′:4,5]cyclopenta [1,2-c]pyrazol-6-yl)pyridin-3-yl)methyl) morpholine]"
2,< 1,"Cn1ncc2ccc(-c3n[nH]c4c3Cc3sc(C5CCNCC5)cc3-4)cc21 [Compound 96, 3-(1-methyl-1H-indazol-6-yl)-6-(piperidin-4-yl)-1,4-dihydrothieno [2′,3′:4,5]cyclopenta [1,2-c]pyrazole]"
3,< 1,"Cn1ncc2ccc(-c3n[nH]c4c3Cc3sc(-c5ccc(CN6CCCOCC6)cc5)cc3-4)cc21 [Compound 97, 4-(4-(3-(1-methyl-1H-indazol-6-yl)-1,4-dihydro-thieno[2′,3′:4,5]cyclopenta [1,2-c]pyrazol-6-yl)benzyl)-1,4-oxazepane]"
4,< 1,"Cn1ncc2ccc(-c3n[nH]c4c3Cc3sc(C5CCN(C(=O)CN6CCOCC6)CC5)cc3-4)cc21 [Compound 98, 1-(4-(3-(1-methyl-1H-indazol-6-yl)-1,4-dihydro-thieno[2′,3′:4,5]cyclopenta [1,2-c]pyrazol-6-yl)piperidin-1-yl)-2-morpholinoethan-1-one]"
5,< 1,"Cn1ncc2ccc(-c3n[nH]c4c3Cc3sc(-c5ccc(CN6CCCC6)cc5)cc3-4)cc21 [Compound 99, 3-(1-methyl-1H-indazol-6-yl)-6-(4-(pyrrolidin-1-ylmethyl)phenyl)-1,4-dihydrothieno[2′,3′:4,5] cyclopenta[1,2-c]pyrazole]"
6,< 1,"Cn1ncc2ccc(-c3n[nH]c4c3Cc3sc(-c5ccc(CN6CCCCC6)cc5)cc3-4)cc21 [Compound 100, 3-(1-methyl-1H-indazol-6-yl)-6-(4-(piperidin-1-ylmethyl)phenyl)-1,4-dihydrothieno[2′,3′:4,5] cyclopenta[1,2-c]pyrazole]"
7,< 1,"Cn1ncc2ccc(-c3n[nH]c4c3Cc3sc(-c5ccc(CN6CC7(COC7)C6)cc5)cc3-4)cc21 [Compound 102, 6-(4-(3-(1-methyl-1H-indazol-6-yl)-1,4-dihydro-thieno[2′,3′:4,5]cyclopenta [1,2-c]pyrazol-6-yl)benzyl)-2-oxa-6-azaspiro [3.3]heptane]"
8,< 1,"Cn1ncc2ccc(-c3n[nH]c4c3Cc3sc(-c5ccc(CN6CCC6)cc5)cc3-4)cc21 [Compound 103, 6-(4-(azetidin-1-ylmethyl)phenyl)-3-(1-methyl-1H-indazol-6-yl)-1,4-dihydro-thieno[2′,3′:4,5]cyclopenta [1,2-c]pyrazole]"
9,1 to 10,"Cn1ncc2ccc(-c3n[nH]c4c3Cc3sc(-c5ccc(CN6CC(F)(F)C6)cc5)cc3-4)cc21 [Compound 104, 6-(4-((3,3-difluoroazeti-din-1-yl)methyl)phenyl)-3-(1-methyl-1H-indazol-6-yl)-1,4-dihydrothieno [2′,3′:4,5]cyclopenta [1,2-c]pyrazole]"
10,< 1,"COC1CN(Cc2ccc(-c3cc4c(s3)Cc3c(-c5ccc6cnn(C)c6c5)n[nH]c3-4)cc2)C1 [Compound 105, 6-(4-((3-methoxyazeti-din-1-yl)methyl)phenyl)-3-(1-methyl-1H-indazol-6-yl)-1,4-dihydrothieno [2′,3′:4,5]cyclopenta [1,2-c]pyrazole]"
